{"source": "paper PMC11997985", "about": "“Synthesis and In Vitro Profiling of Psilocin Derivatives: Improved Stability and Synthetic Properties” (Journal of Medicinal Chemistry, 2025)", "key": {"[1]": {"test": "Stability in simulated stomach acid (0.10 M HCl)", "settings": "0.10 M HCl (simulated stomach acid)"}, "[2]": {"test": "Peak area in microsome suspension compared with compounds in solution", "assay_type": "in vitro ADME, human", "settings": "peak area 15 seconds after addition of NADPH versus same amount (125 nM) in H2O/EtOH", "description": "(§1) were taken at three timepoints, and the degradation was compared to determine if it was dependent on NADPH. Compound 4k […]\n(§2) without the addition of NADPH. […]\n(§3) microsomes that need to be activated by a co -factor.\n(§4) Table S5 Percent of peak area found in microsome suspension 15 seconds after the addition of NADPH in comparison with the same amount dissolved in H2O/EtOH\n(§5) No. Area at 0.25 min. in Area in solution % found in microsomes/NADPH (125 nM) microsome\n(§6) Comparison with compounds in solution. A comparison was made between the peak area of the compounds in solution with that obtained in the microsome suspension directly after the addition of NADPH (about 0.25 minutes) (Table S5). Before the addition of NADPH, the compounds are equilibrated in the microsome suspension for approximately five minutes. All compounds were prepared in solution by diluting a portion of the DMSO solutions with H2O/EtOH (75:25) to 125 nM (the final concentration of compounds for analysis in the microsome assay).\n(§7) For the compounds where no results from the microsome assay could be reported due to low peak area (4d, 4e, 4f & 5), less than one percent of the expected peak area as compared with the area in solution was detected. […]\n(§8) degrade rapidly before the addition of the co-factor after five minutes in incubation. For compounds 4g, 4h, 4i & 4j, which were […]\n(§9) higher relative peak areas were found. […]\n(§10) without NADPH was only found at 15% of the area seen in solution in the microsome suspension."}, "[3]": {"test": "Chemical stability in 1.0 M NaHCO3 and 1.0 M HCl"}, "[4]": {"test": "Co-factor experiment: microsome suspension with and without NADPH", "assay_type": "in vitro ADME, human", "settings": "for Co-factor experiment: degradation with and without addition of NADPH compared", "description": "Therefore, additional experiments comparing stability with and without the addition of NADPH cofactor and a very short incubation period were performed (Tables S4 and S5). […] Due to the rapid observed degradation in microsomes, we decided to investigate the stability of five compounds in human plasma, aiming for a broad range of stabilities (Table 2, Table S6). It should be noted that esterase-labile compounds are notoriously difficult to study in microsomal stability studies.[36]\nTable S3 Evaluation of metabolic stability in human microsomes\nNo. Metabolic stability Comment\n4k <10/<10 Low retention in chromatography\n8 <10/<10 Low retention in chromatography.\nTable S4 Results from the modified microsome assay where degradation with and without the addition of NADPH was compared […]\n4d Very low peak area for the first time point,\n4e Very low peak area for the first time point,\n4f Very low peak area for the first time point,\n5 Very low peak area for the first time point,\n8 No degradation without co -factor […]\nmetabolism by the microsomes (consisting mainly of cytochrome P450 enzymes) or if it was due to other factors, the compounds (with the exception of 4k) were incubated in the microsome suspension both with and without the addition of NADPH. Samples […]\nas §1, §2, §3, §4, §5, §6, §7, §8, §9, §10"}, "[5]": {"test": "Metabolic stability in human microsomes", "assay_type": "in vitro ADME", "settings": "for Metabolic stability in human microsomes: 37 °C, 0.5 mg/mL protein, 1 μM compound, 1 mM NADPH; for Comment on microsome assay: Table S3"}, "[6]": {"test": "Solubility, screen method, phosphate buffer pH 7.4, 1% DMSO", "assay_type": "physicochemical", "settings": "phosphate buffer with 1% DMSO; 100 mM phosphate buffer pH 7.4, 1% DMSO; assay range 0.1 to 100 μM"}, "[7]": {"settings": "cited from earlier work"}}, "note": "“And” between values parts separate entries of the source, which are not always exact repeats. Identical values can stand only once. Marks after values point to notes of the source that are not given here.", "data": [{"smiles": "CN(C)CCc1c[nH]c2cccc(OS(=O)(=O)O)c12", "note": "[Compound 6]", "values": [{"measurement": "half-life at 5 mM", "setting": "[1]", "value": "> 167", "unit": "h"}, {"measurement": "% found in microsome suspension", "setting": "[2]", "value": 15, "unit": "%"}, {"measurement": "half-life at 5 mM", "setting": "[3]; 1.0 M HCl", "value": "> 167", "unit": "h"}, {"measurement": "half-life at 5 mM", "setting": "[3]; 1.0 M NaHCO3", "value": "> 167", "unit": "h"}, {"measurement": "Co-factor experiment", "setting": "[4]", "value": "No degradation without co-factor"}, {"measurement": "Metabolic stability in human microsomes", "setting": "[5]", "value": ">200", "unit": "μL/min/mg protein"}, {"measurement": "Comment on microsome assay", "setting": "[5]", "value": "Rapid degradation"}, {"measurement": "solubility", "setting": "[6]", "value": "> 90", "unit": "µM"}]}, {"smiles": "CN(C)CCc1c[nH]c2cccc(OC(=O)c3ccccc3)c12.O=C(O)/C=C/C(=O)O", "note": "[Compound 4h]", "values": [{"measurement": "half-life at 5 mM", "setting": "[1]", "value": "> 167", "unit": "h"}, {"measurement": "% found in microsome suspension", "setting": "[2]", "value": 44, "unit": "%"}, {"measurement": "half-life at 5 mM", "setting": "[3]; 1.0 M HCl", "value": "> 167", "unit": "h"}, {"measurement": "half-life at 24 h, 5 mM", "setting": "[3]; 1.0 M NaHCO3", "value": 150, "unit": "h"}, {"measurement": "Co-factor experiment", "setting": "[4]", "value": "Degradation without co-factor"}, {"measurement": "microsomal CLint", "setting": "[4]; human, human microsome suspension, both with and without the addition of NADPH, read-out: intrinsic clearance", "value": "> 200", "unit": "µL/min/mg"}, {"measurement": "Metabolic stability in human microsomes", "setting": "[5]", "value": ">200^a μL/min/mg protein and >200 μL/min/mg protein"}, {"measurement": "Comment on microsome assay", "setting": "[5]", "value": "Rapid degradation"}, {"measurement": "solubility", "setting": "[6]", "value": "> 90", "unit": "µM"}]}, {"smiles": "CN(C)CCc1c[nH]c2cccc(O)c12", "note": "[psilocin freebase, 4-hydroxy-N,N-dimethyltryptamine]", "values": [{"measurement": "degradation of psilocin under UV radiation", "setting": "[7]; 254 nm, in EtOH, after 1.75 h", "value": 9, "unit": "%"}, {"measurement": "degradation of psilocin in NaOH solution", "setting": "[7]; NaOH solution (1 M), after 2 h, ref 46 (Barrow et al.)", "value": 60, "unit": "%"}, {"measurement": "degradation of psilocin in oxidative conditions", "setting": "[7]; oxidative conditions", "value": "complete degradation after only two hours"}]}, {"smiles": "CCCC(=O)Oc1cccc2[nH]cc(CCN(C)C)c12.O=C(O)/C=C/C(=O)O", "note": "[Compound 4b]", "values": [{"measurement": "half-life at 5 mM", "setting": "[1]", "value": "> 167", "unit": "h"}, {"measurement": "% found in microsome suspension", "setting": "[2]", "value": 0.3, "unit": "%"}, {"measurement": "half-life at 24 h, 5 mM", "setting": "[3]; 1.0 M HCl", "value": 15, "unit": "h"}, {"measurement": "half-life at 24 h, 5 mM", "setting": "[3]; 1.0 M NaHCO3", "value": 65, "unit": "h"}, {"measurement": "Co-factor experiment", "setting": "[4]", "value": "No degradation without co-factor"}, {"measurement": "Metabolic stability in human microsomes", "setting": "[5]", "value": ">200^a μL/min/mg protein and >200 μL/min/mg protein"}, {"measurement": "Comment on microsome assay", "setting": "[5]", "value": "Rapid degradation"}, {"measurement": "solubility", "setting": "[6]", "value": 87, "unit": "µM"}]}, {"smiles": "CCCCC(=O)Oc1cccc2[nH]cc(CCN(C)C)c12.O=C(O)/C=C/C(=O)O", "note": "[Compound 4c]", "values": [{"measurement": "half-life at 5 mM", "setting": "[1]", "value": "> 167", "unit": "h"}, {"measurement": "% found in microsome suspension", "setting": "[2]", "value": 0.2, "unit": "%"}, {"measurement": "half-life at 24 h, 5 mM", "setting": "[3]; 1.0 M HCl", "value": 13.3, "unit": "h"}, {"measurement": "half-life at 24 h, 5 mM", "setting": "[3]; 1.0 M NaHCO3", "value": 50, "unit": "h"}, {"measurement": "Co-factor experiment", "setting": "[4]", "value": "No degradation without co-factor"}, {"measurement": "Metabolic stability in human microsomes", "setting": "[5]", "value": ">200^a μL/min/mg protein and >200 μL/min/mg protein"}, {"measurement": "Comment on microsome assay", "setting": "[5]", "value": "Rapid degradation"}, {"measurement": "solubility", "setting": "[6]", "value": 87, "unit": "µM"}]}]}
